The values below come from ChEMBL document CHEMBL1165848, “Discovery of new cholesteryl ester transfer protein inhibitors via ligand-based pharmacophore modeling and QSAR analysis followed by synthetic exploration” (Eur J Med Chem, 2010).

One assay concerns the target T1, Cholesteryl ester transfer protein (Oryctolagus cuniculus, UniProt P22687).
T1 sequence (P22687 whole entry): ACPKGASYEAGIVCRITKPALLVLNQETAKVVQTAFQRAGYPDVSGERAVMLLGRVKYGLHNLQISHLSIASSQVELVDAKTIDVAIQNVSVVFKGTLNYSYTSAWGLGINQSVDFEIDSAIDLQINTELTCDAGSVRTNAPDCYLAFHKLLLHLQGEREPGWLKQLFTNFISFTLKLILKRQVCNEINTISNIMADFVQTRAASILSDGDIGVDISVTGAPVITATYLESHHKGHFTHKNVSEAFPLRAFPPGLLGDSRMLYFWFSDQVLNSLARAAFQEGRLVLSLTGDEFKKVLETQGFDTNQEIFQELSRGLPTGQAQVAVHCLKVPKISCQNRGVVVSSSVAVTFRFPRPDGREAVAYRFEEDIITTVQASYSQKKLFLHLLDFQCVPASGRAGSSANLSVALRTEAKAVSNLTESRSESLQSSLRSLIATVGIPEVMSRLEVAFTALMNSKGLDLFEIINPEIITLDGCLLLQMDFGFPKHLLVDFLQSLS
Description: Inhibition of CETP in rabbit serum after 1 hr by fluorescent cholesteryl esters transfer assay.
Settings: not given
By IC50 is commonly meant the concentration that gives 50% inhibition. In the case of `CC(C)Oc1cccc(N(Cc2cccc(OC(F)(F)C(F)F)c2)CC(O)C(F)(F)F)c1` (stereo unspecified), the IC50 is 0.3 µM.

Still in this assay, the particulars now being: read-out: IC50.
With `OC(CN(Cc1cccc(OC(F)(F)C(F)F)c1)c1cccc(Oc2ccc(Cl)c(Cl)c2)c1)C(F)(F)F` (stereo unspecified), the IC50 is 0.08 µM.
Regarding `OC(CN(Cc1ccc(OC(F)(F)F)cc1)c1cccc(Oc2ccccc2)c1)C(F)(F)F` (stereo unspecified), the IC50 is 4 µM.
The same measure, in the same setting: next, `OC(CN(Cc1cccc(-c2ncccc2C(F)(F)F)c1)c1cccc(Oc2ccccc2)c1)C(F)(F)F` (stereo unspecified): 4.08 µM.
Regarding `OC(Cc1ccccc1)CN(Cc1cccc(OC(F)(F)F)c1)c1ccccc1Oc1ccccc1` (stereo unspecified), the IC50 was > 50 µM.
On the same count and under the same terms, as for `Cc1cc(Oc2cccc(N(Cc3cccc(OC(F)(F)C(F)F)c3)CC(O)C(F)(F)F)c2)ccc1Cl` (stereo unspecified), the figure is 0.2 µM.
For the compound `OC(CN(Cc1cccc(OC(F)(F)C(F)F)c1)c1cccc(Oc2cccc(F)c2)c1)C(F)(F)F` (stereo unspecified), the IC50 turned out to be 0.3 µM.
The same measure, in the same setting: as for `OC(CN(Cc1cccc(SC(F)(F)F)c1)c1cccc(Oc2ccccc2)c1)C(F)(F)F` (stereo unspecified), the figure is 0.39 µM; as for `OC(CN(Cc1cccc(C(F)(F)F)c1)c1cccc(F)c1)C(F)(F)F` (stereo unspecified), 40 µM; as for `Cc1ccccc1CN(CC(O)C(F)(F)F)c1cccc(F)c1` (stereo unspecified), > 100 µM.
The same measure, in the same setting: as for `Cc1cccc(CN(CC(O)C(F)(F)F)c2cccc(F)c2)c1` (stereo unspecified), the figure is > 100 µM; as for `OC(CN(Cc1cccc(OC(F)(F)C(F)F)c1)c1cccc(OC2CCCC2)c1)C(F)(F)F` (stereo unspecified), 0.4 µM; as for `CC(C)c1ccc(Oc2cccc(N(Cc3cccc(OC(F)(F)C(F)F)c3)CC(O)C(F)(F)F)c2)cc1` (stereo unspecified), 0.4 µM.
Still for that read-out and setting: as for `OC(CN(Cc1cccc(OC(F)(F)C(F)F)c1)c1cccc(Oc2cccnc2)c1)C(F)(F)F` (stereo unspecified), the figure is 1.3 µM; as for `Cc1ccc(CN(CC(O)C(F)(F)F)c2cccc(Oc3ccccc3)c2)cc1-c1ccco1` (stereo unspecified), 3.96 µM; as for `OC(CN(Cc1cccc(C(F)(F)F)c1)c1cccc(Cl)c1)C(F)(F)F` (stereo unspecified), 12 µM.
Turning to `OC(CN(Cc1cccc(Oc2ccccc2)c1)c1cccc(F)c1)C(F)(F)F` (stereo unspecified), the IC50 came out at 15 µM.
The same measure, in the same setting: as for `CCc1cc(Oc2cccc(N(Cc3cccc(C(F)(F)C(F)(F)F)c3)C[C@@H](O)C(F)(F)F)c2)ccc1Cl`, the figure is 0.045 µM.
Same read-out and setting: next, `OC(CN(Cc1ccc(OC(F)(F)F)cc1)c1cccc(F)c1)C(F)(F)F` (stereo unspecified): 15 µM; `OC(CN(Cc1cccc(Oc2ccccc2)c1)Cc1cccc(OC(F)(F)F)c1)C(F)(F)F` (stereo unspecified): 30 µM; `OC(CN(Cc1cccc(OC(F)(F)F)c1)c1ccc(Oc2ccccc2)cc1)C(F)(F)F` (stereo unspecified): 25 µM.
For the compound `CCCC(O)CN(Cc1cccc(OC(F)(F)F)c1)c1ccccc1Oc1ccccc1` (stereo unspecified), the IC50 is 3.6 µM.
Same read-out and setting: next, `OC(CN(Cc1cccc(OC(F)(F)F)c1)Cc1cccc(OC(F)(F)F)c1)C(F)(F)F` (stereo unspecified): 23 µM; `OC(CN(Cc1cccc(OC(F)(F)C(F)F)c1)c1cccc(OC2CCCCC2)c1)C(F)(F)F` (stereo unspecified): 2.6 µM; `OC(CN(Cc1cccc(OC(F)(F)C(F)F)c1)c1cccc(Oc2cc(F)cc(F)c2)c1)C(F)(F)F` (stereo unspecified): 0.2 µM.
Still for that read-out and setting: as for `OC(CN(Cc1cccc(OC(F)(F)F)c1)c1ccccc1Oc1ccccc1)c1ccc(C(F)(F)F)cc1` (stereo unspecified), the figure is 18 µM.
On the same count and under the same terms, as for `OC(CN(Cc1cccc(OC(F)(F)C(F)F)c1)c1cccc(Oc2ccc(Cc3ccccc3)cc2)c1)C(F)(F)F` (stereo unspecified), the figure is 2.4 µM; as for `OC(CN(Cc1ccc2c(c1)OC(F)(F)C(F)(F)O2)c1cccc(Oc2ccccc2)c1)C(F)(F)F` (stereo unspecified), 12 µM; as for `COc1cc(N(Cc2cccc(SC(F)(F)F)c2)C[C@@H](O)C(F)(F)F)cc(OC)c1OC`, 5 µM.
Consider `CC(C)(C)Oc1cccc(CN(CC(O)C(F)(F)F)c2cccc(Oc3ccccc3)c2)c1` (stereo unspecified), for which the IC50 was 0.66 µM.
On the same count and under the same terms, as for `O=[N+]([O-])c1c(F)cccc1Oc1cccc(N(Cc2cccc(OC(F)(F)C(F)F)c2)CC(O)C(F)(F)F)c1` (stereo unspecified), the figure is 0.1 µM.
`OC(CN(Cc1ccccc1)c1cccc(F)c1)C(F)(F)F` (stereo unspecified): the IC50 is > 100 µM.
`OC(CN(Cc1cccc(Oc2cccc(C(F)(F)F)c2)c1)c1cccc(F)c1)C(F)(F)F` (stereo unspecified): the IC50 turned out to be 0.0012 µM.
Same read-out and setting: next, `OC(CN(Cc1cccc(-c2cccs2)c1)c1cccc(Oc2ccccc2)c1)C(F)(F)F` (stereo unspecified): 1.12 µM; `COC(=O)c1cccc(CN(CC(O)C(F)(F)F)c2cccc(Oc3ccccc3)c2)c1` (stereo unspecified): 16 µM.
Same read-out and setting: as for `COc1cccc(Oc2cccc(N(Cc3cccc(OCC(O)C(F)(F)F)c3)CC(O)C(F)(F)F)c2)c1` (stereo unspecified), the figure is 1.3 µM; as for `OC(CN(Cc1cccc(OC(F)(F)F)c1)c1ccccc1Oc1ccccc1)c1ccccc1` (stereo unspecified), > 50 µM; as for `OC(CN(Cc1cccc(OC(F)(F)C(F)(F)F)c1)c1cccc(Oc2ccc(S)cc2)c1)C(F)(F)F` (stereo unspecified), > 50 µM.
The same measure, in the same setting: next, `OC(CN(Cc1cccc(OC(F)(F)C(F)F)c1)c1cccc(Oc2cccc(Cl)c2Cl)c1)C(F)(F)F` (stereo unspecified): 0.03 µM.
On to `OC(CN(Cc1cccc(-c2cccnc2)c1)c1cccc(Oc2ccccc2)c1)C(F)(F)F` (stereo unspecified), for which the IC50 is 14.3 µM.
Same read-out and setting: next, `Cc1cccc(Oc2cccc(N(Cc3cccc(OC(F)(F)C(F)F)c3)CC(O)C(F)(F)F)c2)c1` (stereo unspecified): 0.09 µM; `OC(CN(Cc1cccc(-c2ccncc2)c1)c1cccc(Oc2ccccc2)c1)C(F)(F)F` (stereo unspecified): 6.24 µM.
Still for that read-out and setting: as for `Cc1ccc(Oc2cccc(N(Cc3cccc(OC(F)(F)C(F)F)c3)CC(O)C(F)(F)F)c2)cc1C` (stereo unspecified), the figure is 0.08 µM.
Still for that read-out and setting: as for `OC(CN(Cc1cccc(-c2ccccc2)c1)c1cccc(Oc2ccccc2)c1)C(F)(F)F` (stereo unspecified), the figure is 4.42 µM.
Regarding `Cc1cccnc1-c1cccc(CN(CC(O)C(F)(F)F)c2cccc(Oc3ccccc3)c2)c1` (stereo unspecified), the IC50 came out at 15 µM.
Still for that read-out and setting: next, `Cc1cc(Oc2cccc(N(Cc3cccc(OC(F)(F)C(F)F)c3)CC(O)C(F)(F)F)c2)ccc1F` (stereo unspecified): 0.08 µM.
Regarding `Cc1cccc(N(Cc2cccc(C(F)(F)F)c2)CC(O)C(F)(F)F)c1` (stereo unspecified), the IC50 came out at 10 µM.
On the same count and under the same terms, next, `COc1cccc(CN(CC(O)C(F)(F)F)c2cccc(Oc3ccccc3)c2)c1` (stereo unspecified): 15 µM; `OC(CN(Cc1cccc(C(F)(F)F)c1)c1ccccc1)C(F)(F)F` (stereo unspecified): 15 µM; `Cc1ccccc1N(Cc1cccc(C(F)(F)F)c1)CC(O)C(F)(F)F` (stereo unspecified): > 100 µM.
The same measure, in the same setting: next, `OC(CN(Cc1cccc(C2CCCC2)c1)c1cccc(Oc2ccccc2)c1)C(F)(F)F` (stereo unspecified): 0.3 µM.
Same read-out and setting: as for `OC(CN(Cc1cccc(OC(F)(F)C(F)F)c1)c1cccc(OCc2cccc(C(F)(F)F)c2)c1)C(F)(F)F` (stereo unspecified), the figure is 0.09 µM.
Take `Cc1cc(C)cc(Oc2cccc(N(Cc3cccc(OC(F)(F)C(F)F)c3)CC(O)C(F)(F)F)c2)c1` (stereo unspecified): the IC50 was 0.07 µM.
Still for that read-out and setting: as for `OC(CN(Cc1ccc(F)c(-c2ccco2)c1)c1cccc(Oc2ccccc2)c1)C(F)(F)F` (stereo unspecified), the figure is 0.72 µM; as for `OC(CN(Cc1ccc(-c2ccccc2)cc1)c1cccc(F)c1)C(F)(F)F` (stereo unspecified), 20 µM.
On the same count and under the same terms, as for `CCc1cc(Oc2cccc(N(Cc3cc(C(F)(F)F)ccc3F)C[C@@H](O)C(F)(F)F)c2)ccc1Cl`, the figure is 0.049 µM.
Still for that read-out and setting: as for `OC(CN(Cc1cccc(OC(F)(F)C(F)F)c1)c1cccc(Oc2ccc(OC(F)(F)F)cc2)c1)C(F)(F)F` (stereo unspecified), the figure is 0.4 µM; as for `OC(CN(Cc1cccc(C(F)(F)F)c1)c1cccc(C(F)(F)F)c1)C(F)(F)F` (stereo unspecified), 10 µM; as for `OC(CN(Cc1cccc(OC(F)(F)C(F)F)c1)c1cccc(Oc2ccccc2Cl)c1)C(F)(F)F` (stereo unspecified), 0.3 µM.
Consider `CCc1cc(Oc2cccc(N(Cc3cccc(OC(F)(F)F)c3)C[C@@H](O)C(F)(F)F)c2)ccc1Cl`, for which the IC50 was determined as 0.035 µM.
Still for that read-out and setting: as for `C=CC(O)CN(Cc1cccc(OC(F)(F)F)c1)c1ccccc1Oc1ccccc1` (stereo unspecified), the figure is > 50 µM; as for `CN(C)c1cccc(Oc2cccc(N(Cc3cccc(OC(F)(F)C(F)F)c3)CC(O)C(F)(F)F)c2)c1` (stereo unspecified), 0.2 µM.
On the same count and under the same terms, as for `O=[N+]([O-])c1ccccc1Oc1cccc(N(Cc2cccc(OC(F)(F)C(F)F)c2)CC(O)C(F)(F)F)c1` (stereo unspecified), the figure is 0.4 µM.
As for `OC(CN(Cc1cccc(OC(F)(F)C(F)F)c1)c1cccc(OCc2ccccc2)c1)C(F)(F)F` (stereo unspecified), the IC50 worked out at 0.2 µM.
Same read-out and setting: next, `OC(CN(Cc1cccc(OC(F)(F)C(F)F)c1)c1cccc(Oc2ccc(Cl)cc2)c1)C(F)(F)F` (stereo unspecified): 0.3 µM.
Same read-out and setting: next, `OC(CN(Cc1cccc(OC(F)(F)C(F)F)c1)c1cccc(Oc2cccc(F)c2F)c1)C(F)(F)F` (stereo unspecified): 0.1 µM.
On the same count and under the same terms, as for `CC(C)(C)c1cccc(Oc2cccc(N(Cc3cccc(OC(F)(F)C(F)F)c3)CC(O)C(F)(F)F)c2)c1` (stereo unspecified), the figure is 0.08 µM; as for `OC(CN(Cc1ccccc1C(F)(F)F)c1cccc(F)c1)C(F)(F)F` (stereo unspecified), > 100 µM.
For the compound `Cc1ccc(N(Cc2cccc(C(F)(F)F)c2)CC(O)C(F)(F)F)cc1` (stereo unspecified), the IC50 was > 100 µM.
Regarding `Cc1ccc(Oc2cccc(N(Cc3cccc(OC(F)(F)C(F)F)c3)C[C@@H](O)C(F)(F)F)c2)cc1`, the IC50 was determined as 0.0081 µM.
Still for that read-out and setting: as for `Cc1ccc(Oc2cccc(N(Cc3cccc(OC(F)(F)C(F)F)c3)CC(O)C(F)(F)F)c2)cc1` (stereo unspecified), the figure is 0.1 µM; as for `Cc1ccc(CN(CC(O)C(F)(F)F)c2cccc(F)c2)cc1` (stereo unspecified), 65 µM; as for `CC(C)(O)c1cccc(CN(CC(O)C(F)(F)F)c2cccc(Oc3ccccc3)c2)c1` (stereo unspecified), 7.8 µM.
The same measure, in the same setting: as for `OC(CN(Cc1cccc(OC(F)(F)C(F)F)c1)c1cccc(Oc2ccc(-c3ccccc3)cc2)c1)C(F)(F)F` (stereo unspecified), the figure is 2.5 µM.
Turning to `CC(C)Cc1cccc(CN(CC(O)C(F)(F)F)c2cccc(Oc3ccccc3)c2)c1` (stereo unspecified), the IC50 came out at 0.54 µM.
On the same count and under the same terms, as for `OC(CN(Cc1cccc(OC(F)(F)C(F)F)c1)c1cccc(F)c1)C(F)(F)F` (stereo unspecified), the figure is 4.5 µM.
